“Also recorded” adds a separate entry of the source. Read-outs that look alike come from different tables or passages of the source.
Columns and labels:
[1] = Moisture sorption/desorption (moisture balance); assay type: physicochemical; conditions: for weight loss at 5% RH: sample not dried prior to analysis; for hygroscopicity: based on moisture sorption/desorption data
Protocol: The moisture sorption/desorption data was collected on a VT SGA-100 moisture balance system. […] The sample was not dried prior to analysis. Equilibrium criteria used for analysis was less than 0.0100% weight change in 5 minutes with a maximum equilibration time of 3 hours if the weight criterion was not met. Data was not corrected for the initial moisture content of the samples.

[2] = Interconversion studies of Forms A and B; assay type: physicochemical
Source text: The interconversion of Forms A and B were preformed using ethyl acetate and 95% isopropanol:water. […] The interconversions in ethyl acetate yielded a mixture of Forms A and B, which is probably due to the low solublility of the materials.

[3] = ambient temperature, sodium salt
physchem = conditions: thermodynamic from solid, SOLUBILITY (mg/mL), ambient temperature
[4] = listed as Sample lot I Form A, sodium salt
[5] = listed as Sample lot III Form A, sodium salt
[6] = listed as Sample lot IV Form A, sodium salt

Cc1cc2c(cc1CC(=O)c1sccc1S(=O)(=O)[N-]c1onc(C)c1Cl)OCO2.[Na+] [Form A, N-(4-chloro-3-methyl-5-isoxazolyl)-2-[2-methyl-4,5-(methylenedioxy)phenylacetyl]thiophene-3-sulfonamide, sodium salt]
weight loss at 5% RH [1, 4]: 0.18% weight loss at 5% RH, | weight loss at 5% RH [1, 5]: 0.04% weight loss at 5% RH, | weight loss at 5% RH [1, 6]: 0.05% weight loss at 5% RH, | weight loss at 5% RH ([1]; sodium salt): minimal weight | total weight gain at 95% RH [1, 4]: 1.48% total weight gain at 95% RH | total weight gain at 95% RH [1, 5]: 1.08% total weight gain at 95% RH | total weight gain at 95% RH [1, 6]: 1.10% total weight gain at 95% RH | total weight gain at 95% RH ([1]; sodium salt): less than 1.5% | hygroscopicity ([1]; sodium salt): non-hygroscopic up to 75% RH; also recorded: nonhygroscopic | relative thermodynamic stability of the forms ([2]; interconversion in 95% isopropanol:water): more thermodynamically stable form | relative stability of the forms ([2]; interconversion studies in ethyl acetate (so in the source)): most stable form | relative thermodynamic stability of the forms ([2]; interconversion studies, solvent not stated): more thermodynamically stable form | solubility ([3]; N,N-dimethylformamide (DMF)): >228 mg/mL | solubility ([3]; chloroform): <3 mg/mL | solubility ([3]; dichloromethane): <3 mg/mL | solubility ([3]; methyl t-butyl ether (MTBE)): <3 mg/mL | solubility (physchem; organic solvent or mixture, N,N-dimethylformamide (DMF)): 228 mg/mL | solubility (physchem; organic solvent or mixture, acetone): 96 mg/mL | solubility (physchem; organic solvent or mixture, acetonitrile (ACN)): 25 mg/mL | solubility (physchem; organic solvent or mixture, chloroform): < 3 mg/mL | solubility (physchem; organic solvent or mixture, dichloromethane): < 3 mg/mL | solubility (physchem; organic solvent or mixture, ethanol (EtOH)): 60 mg/mL | solubility (physchem; organic solvent or mixture, ethyl acetate (EtOAc)): 6 mg/mL | solubility (physchem; organic solvent or mixture, hexanes): < 8 mg/mL | solubility (physchem; organic solvent or mixture, isopropanol (IPA)): < 4 mg/mL | solubility (physchem; organic solvent or mixture, methanol (MeOH)): 160 mg/mL | solubility (physchem; organic solvent or mixture, methyl ethyl ketone (MEK)): 34 mg/mL | solubility (physchem; organic solvent or mixture, methyl t-butyl ether (MTBE)): < 3 mg/mL | solubility (physchem; organic solvent or mixture, tetrahydrofuran (THF)): 86 mg/mL | solubility (physchem; organic solvent or mixture, toluene): < 7 mg/mL | solubility (physchem; water): 48 mg/mL

Cc1cc2c(cc1CC(=O)c1sccc1S(=O)(=O)Nc1onc(C)c1Cl)OCO2.[Na] [Amorphous, N-(4-chloro-3-methyl-5-isoxazolyl)-2-[2-methyl-4,5-(methylenedioxy)phenylacetyl]thiophene-3-sulfonamide, sodium salt]
weight loss at 5% RH [1]: 1.4% weight loss at 5% RH, | total weight gain at 95% RH ([1]; listed as amorphous form, sodium salt): 22% | total weight gain at 95% RH ([1]; sodium salt): 22.0.% total weight gain at 95% RH | hygroscopicity [1]: highly hygroscopic

Cc1cc2c(cc1CC(=O)c1sccc1S(=O)(=O)[N-]c1onc(C)c1Cl)OCO2.[Na+] [Form B, N-(4-chloro-3-methyl-5-isoxazolyl)-2-[2-methyl-4,5-(methylenedioxy)phenylacetyl]thiophene-3-sulfonamide, sodium salt]
weight loss at 5% RH ([1]; sodium salt): 0.13% weight loss at 5% RH, | weight change during the moisture sorption/desorption experiment ([1]; 5 to 95% RH sorption, 95 to 5% RH desorption): loses and gains minimal weight | total weight gain at 95% RH ([1]; sodium salt): 0.98% total weight gain at 95% RH
